The METLIN SMRT retention time set (Domingo-Almenara et al. 2019)

Assay: gradient 5% acetonitrile 3 min, to 50% in 2 min, to 85% in 15 min, held 3 min, 100 µL/min
Conditions: column: Zorbax Extend-C18 2.1 x 50 mm; eluents: water / acetonitrile, 0.1% formic acid
How it was run: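 The system's dead and dwell volumes were 40 μL and 900 μL, with a Zorbax Extend-C18 column (2.1 × 50 mm, 1.8 μm) run at 100 μL/min in water and acetonitrile containing 0.1% formic acid each. Pure standards were analyzed in mixtures of ~100 molecules by HPLC–quadrupole time-of-flight mass spectrometry in positive and negative ionization mode. Retention time was assigned from computationally picked, manually inspected adduct peaks.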

RP-LC retention time | SMILES
971 s | COc1cc(NC(=O)c2cc3cc4cc(OC)ccc4nc3o2)cc(OC)c1
747 s | O=C(NCc1ccc(F)cc1)C1CCCN(S(=O)(=O)c2c[nH]c(C(=O)N3CCCC3)c2)C1 (configuration not stated)
641 s | CC(=O)Nc1ccc(C(=O)NC2CCN(c3cc(-c4ccc(F)cc4)[nH]n3)C2)cc1 (configuration not stated)
885 s | CC(C)CCNC(=O)c1ccc2c(c1)N(C)C(=O)C1CCCCN21 (configuration not stated)
616 s | O=C1CCCCC(CNC(=O)c2cccs2)N1 (configuration not stated)
731 s | COC(=O)c1ncn2c1C(=O)N(c1cc(C)ccc1C)C(C)(C(=O)NCc1ccccc1)C2 (configuration not stated)
599 s | CCc1cc(N2CCN(C(=O)c3ccc(N(C)C)cc3)CC2)nc2nnc(C)n12
626 s | Cc1nc(-c2cnccn2)nc2c1CCC(=O)N2CC1CCCO1 (configuration not stated)
752 s | COc1ccc(CC(=O)N2CCC3(CC2)C(=O)N(C)c2ccccc23)cc1OC
1300 s | Cc1ccc(-n2nc(C)c3sc(N4CCCC(C(=O)NC(C)CCc5ccccc5)C4)nc32)cc1 (configuration not stated)
616 s | Cn1c(=O)c(N2CCN(C(=O)c3ccc(F)cc3Cl)CC2)nc2ccncc21
896 s | Cc1nn(C)c(C)c1S(=O)(=O)N1CCC(OCCOCc2ccccc2)CC1
895 s | Cc1ccc2c(c1)NC(=O)C(C(=O)NC1CCCCCCC1)O2 (configuration not stated)
689 s | COCCN1C(=O)c2cccn2CC1CNC(=O)c1sccc1C (configuration not stated)
994 s | Cc1cc(C)cc(NC(=O)CN2C(=O)C3CCCCN3c3ccc(S(=O)(=O)N(C)C)cc32)c1 (configuration not stated)
577 s | CC(=O)N1C[C@@H]2CCCN3CCC[C@@H]([C@H]23)[C@H]1CCCC(=O)NCC(C)C
829 s | CC(Cc1ccco1)NC(=O)c1ccc2ccnc(N3CCN(c4ccc(F)cc4)CC3)c2c1 (configuration not stated)
645 s | COCCNC(=O)C1CCN(C(=O)c2ncn3c2COC(c2ccc(F)cc2)C3)CC1 (configuration not stated)
638 s | CCN(CC)CCNC(=O)c1sc2ncn(Cc3ccccc3F)c(=O)c2c1C
864 s | Cc1ccc(NC(=O)Cn2nc3c(Oc4ccc(Cl)cc4)nccn3c2=O)cc1

More lines, now with the values behind:

SMILES | RP-LC retention time
CCN(CCCNC(=O)C1CCCN(c2ncnc3c2nc2n3CCCCC2)C1)Cc1ccccc1 (configuration not stated) | 623 s
O=C1NCCCCCCN(C(=O)Nc2ccc(F)cc2)[C@H]2CCC[C@@H]12 | 780 s
CCc1cc(N2CCN(C(=O)COc3ccc(OC)cc3)CC2)nc2nnc(C)n12 | 613 s
CCCNC(=O)c1nc2ccccn2c1-c1ccc(F)cc1 | 730 s
Cc1ccn2c(NC(=O)c3ccc(C)c(C)c3)c(-c3ccc(F)cc3)nc2c1 | 737 s
Cc1ccc(C)c(NC(=O)C(=O)NCC(c2ccc3c(c2)OCO3)N2CCOCC2)c1 (configuration not stated) | 693 s
O=C(NCC1CCOCC1)Nc1cccc(F)c1 | 698 s
CCOc1cc(C(=O)NC2CCN(c3cc(-c4ccc(Cl)cc4)[nH]n3)C2)cc(OCC)c1OCC (configuration not stated) | 927 s
CCCCNC(=O)CCc1[nH]c(C)c(C(=O)OCC)c1C | 762 s
Cc1nnsc1C(=O)N1CC2CC(C1)c1cccc(=O)n1C2 (configuration not stated) | 551 s
CN(C)c1ccc(/C=C/C(=O)c2cc(Cl)ccc2O)cc1 | 1120 s
COc1ccc(CCNC(=O)C2CCN(S(=O)(=O)c3cn(C(C)C)cn3)CC2)cc1OC | 689 s
COc1cccc2c1cc1c(=O)n(CC(=O)N3CCN(c4ccccn4)CC3)nc(C)n12 | 591 s
COCCN1C(=O)c2ccccc2C(C(=O)Nc2nc(C)c(C)s2)C12CCCC2 (configuration not stated) | 842 s
CCOC(=O)c1nc(NCCCN2CCN(c3cc(Cl)ccc3C)CC2)c2ccccc2n1 | 731 s
CCn1ncc2ccc(C(N)=O)cc21 | 599 s
CC(C)NC(=O)CN1C(=O)COc2ccc(C(=O)NC3CCCC3)cc21 | 712 s
